PubChem BioAssay AID264 (DTP/NCI, 2004)
Where “and” joins values, the source holds several entries; their conditions need not be identical. Equal entries are not always repeated. Inconclusive results are not listed. Numbered stars: 1 amine (or outer) side, 2 acyl side, 3 side chain; on linkers, the order of the positions; unused ones are H or OH. Bridge positions count the residues as written; N and C are the ends. Square brackets hold non-standard residues; d marks the D form. Peptide text beside a SMILES is read from it. I, II: the chains in the order shown. Actinocin(1to9) = Cc1c2oc3c(C)ccc(C(=O)[*:2])c3nc-2c(C(=O)[*:1])c(N)c1=O; NMeV = CN[CH](C(=O)O)C(C)C; Aze = O=C(O)[CH]1CCN1; Sar = CNCC(=O)O

Tested on: nude mice, LX-1 lung xenograft intrarenal, tumor weight T/C
Assay: NCI In Vivo Anticancer Drug Screen. Data for tumor model Human Lung LX-1 Xenograft (intrarenal inoculation) in NU/NU Swiss (nude) mice
Conditions: endpoint: mean tumor weight change, higher = larger tumour
Summary of the method: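 In vivo, transplantable tumor; compound vs vehicle arms; tumor size measured; value = T/C.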

[1] = dose: 25.0 mg/kg/injection, schedule: Q01DX010 (sc), vehicle: Klucel (hydroxypropylcellulose) (HPC)
[2] = dose: 50.0 mg/kg/injection, schedule: Q01DX010 (sc), vehicle: Klucel (hydroxypropylcellulose) (HPC)
[3] = dose: 300.0 mg/kg/injection, schedule: Q04DX003 (sc), vehicle: Klucel (hydroxypropylcellulose) (HPC)
[4] = dose: 100.0 mg/kg/injection, schedule: Q01DX010 (sc), vehicle: water
[5] = dose: 100.0 mg/kg/injection, schedule: Q01DX010 (sc), vehicle: Klucel (hydroxypropylcellulose) (HPC)
[6] = dose: 37.5 mg/kg/injection, schedule: Q04DX003 (sc), vehicle: Klucel (hydroxypropylcellulose) (HPC)
[7] = dose: 75.0 mg/kg/injection, schedule: Q04DX003 (sc), vehicle: Klucel (hydroxypropylcellulose) (HPC)
[8] = dose: 150.0 mg/kg/injection, schedule: Q04DX003 (sc), vehicle: Klucel (hydroxypropylcellulose) (HPC)

## O=C(O)c1ccc(C(=O)O)c(C(=O)O)c1.[NH-]C1CCCCC1[NH-].[Pt+2]
dose: 3.12 mg/kg/injection, schedule: Q01DX010 (sc), vehicle: sodium bicarbonate
  T/C: 101 % of control
dose: 6.25 mg/kg/injection, schedule: Q01DX010 (sc), vehicle: sodium bicarbonate
  T/C: 74 % of control

## N#C[Se-].c1ccc([Te+](c2ccccc2)c2ccccc2)cc1
dose: 6.25 mg/kg/injection, schedule: Q04DX003 (sc), vehicle: Klucel (hydroxypropylcellulose) (HPC)
  T/C: 75 % of control
dose: 25.0 mg/kg/injection, schedule: Q04DX003 (sc), vehicle: Klucel (hydroxypropylcellulose) (HPC)
  T/C: 82 % of control

## CC[C@@H](C)[C@@H]1NC(=O)C(NC(=O)C(CC(C)C)N(C)C(=O)C2CCCN2C(=O)C(C)O)C(C)OC(=O)C(Cc2ccc(OC)cc2)N(C)C(=O)C2CCCN2C(=O)C(CC(C)C)NC(=O)C(C)C(=O)C(C(C)C)OC(=O)C[C@H]1O (stereo partly specified)
dose: 75.0 micrograms/kg/injection, schedule: Q04DX003 (sc), vehicle: distilled water + alcohol
  T/C: 28 % of control
dose: 600.0 micrograms/kg/injection, schedule: Q04DX003 (sc), vehicle: distilled water + alcohol
  T/C: 85 % of control and 87 % of control
dose: 1200.0 micrograms/kg/injection, schedule: Q04DX003 (sc), vehicle: distilled water + alcohol
  T/C: 87 % of control

## CCN(CC)CC[n+]1ccc2c(C)c3[nH]c4ccc(O)cc4c3c(C)c2c1
dose: 25.0 mg/kg/injection, schedule: Q04DX003 (sc), vehicle: suspension in saline
  T/C: 172 % of control
dose: 50.0 mg/kg/injection, schedule: Q04DX003 (sc), vehicle: suspension in saline
  T/C: 111 % of control

## CN1CCN(c2ccc([N+](=O)[O-])c3no[n+]([O-])c23)CC1
dose: 150.0 mg/kg/injection, schedule: Q04DX003 (sc), vehicle: saline with Tween-80
  T/C: 73 % of control

## C=C1N(C)c2ccccc2C1(C)C
dose: 50.0 mg/kg/injection, schedule: Q04DX003 (sc), vehicle: saline with Tween-80
  T/C: 80 % of control
dose: 100.0 mg/kg/injection, schedule: Q04DX003 (sc), vehicle: saline with Tween-80
  T/C: 76 % of control

## CCCCCC(O)C1C(=O)OC(C)C(O)/C=C/C=C/C=C/C=C\C=C(\C)C(O)CC(O)CC(O)CC(O)CC(O)CC(O)CC1O (stereo unspecified)
dose: 150.0 mg/kg/injection, schedule: Q04DX003 (sc), vehicle: distilled water + alcohol
  T/C: 107 % of control
dose: 300.0 mg/kg/injection, schedule: Q04DX003 (sc), vehicle: distilled water + alcohol
  T/C: 117 % of control
dose: 600.0 mg/kg/injection, schedule: Q04DX003 (sc), vehicle: distilled water + alcohol
  T/C: 98 % of control
dose: 1200.0 mg/kg/injection, schedule: Q04DX003 (sc), vehicle: distilled water + alcohol
  T/C: 105 % of control

## Cc1c2oc3c(C)ccc(C(=O)NC4C(=O)NC(C(C)C)C(=O)N5CCCC5C(=O)N(C)CC(=O)N(C)C(C(C)C)C(=O)OC4C)c3nc-2c(C(=O)NC2C(=O)NC(C(C)C)C(=O)N3CCC3C(=O)N(C)CC(=O)N(C)C(C(C)C)C(=O)OC2C)c(N)c1=O (stereo unspecified) (I: TV[Aze][Sar][NMeV] / II: TVP[Sar][NMeV]; ester I:1-I:C, II:1-II:C; linker I:N-II:N via Actinocin(1to9); configuration not given here)
dose: 0.25 mg/kg/injection, schedule: Q04DX003 (sc), vehicle: saline + alcohol
  T/C: 58 % of control
dose: 0.5 mg/kg/injection, schedule: Q04DX003 (sc), vehicle: saline + alcohol
  T/C: 44 % of control
dose: 1.0 mg/kg/injection, schedule: Q04DX003 (sc), vehicle: saline + alcohol
  T/C: 29 % of control

## NC(CSC(c1ccccc1)(c1ccccc1)c1ccccc1)C(=O)O (stereo unspecified)
[1]
  T/C: 86 % of control
[2]
  T/C: 155 % of control

## O=c1[nH]c2c(ccc3cnccc32)c2c1CCC2
dose: 100.0 mg/kg/injection, schedule: Q04DX003 (sc), vehicle: suspension in saline
  T/C: 87 % of control
dose: 200.0 mg/kg/injection, schedule: Q04DX003 (sc), vehicle: suspension in saline
  T/C: 87 % of control
dose: 400.0 mg/kg/injection, schedule: Q04DX003 (sc), vehicle: suspension in saline
  T/C: 57 % of control
dose: 800.0 mg/kg/injection, schedule: Q04DX003 (sc), vehicle: suspension in saline
  T/C: 109 % of control

## C/C=C/c1cc2n(c1)C(=O)c1cc(OC3OC(C)C(NC)C(C)(O)C3O)c(C)c(O)c1NC2O (stereo unspecified)
dose: 50.0 micrograms/kg/injection, schedule: Q04DX003 (sc), vehicle: saline
  T/C: 54 % of control
dose: 200.0 micrograms/kg/injection, schedule: Q04DX003 (sc), vehicle: saline
  T/C: 92 % of control
dose: 400.0 micrograms/kg/injection, schedule: Q04DX003 (sc), vehicle: saline
  T/C: 91 % of control

## Oc1c(Cl)cc(C(c2cc(Cl)c(O)c(Cl)c2)C(c2cc(Cl)c(O)c(Cl)c2)c2cc(Cl)c(O)c(Cl)c2)cc1Cl
[3]
  T/C: 88 % of control
dose: 600.0 mg/kg/injection, schedule: Q04DX003 (sc), vehicle: Klucel (hydroxypropylcellulose) (HPC)
  T/C: 66 % of control
dose: 1200.0 mg/kg/injection, schedule: Q04DX003 (sc), vehicle: Klucel (hydroxypropylcellulose) (HPC)
  T/C: 55 % of control
dose: 2400.0 mg/kg/injection, schedule: Q04DX003 (sc), vehicle: Klucel (hydroxypropylcellulose) (HPC)
  T/C: 66 % of control

## CC(/C=N/N=C(N)N)=N\N=C(N)N
dose: 12.5 mg/kg/injection, schedule: Q01DX010 (sc), vehicle: water
  T/C: 81 % of control
dose: 25.0 mg/kg/injection, schedule: Q01DX010 (sc), vehicle: water
  T/C: 78 % of control
[4]
  T/C: 58 % of control

## O=C(O)c1c2c(nc3ccccc13)Cc1ccccc1-2
[4]
  T/C: 39 % of control
dose: 200.0 mg/kg/injection, schedule: Q01DX010 (sc), vehicle: water
  T/C: 33 % of control

## CCCC(=O)OCc1cc(=O)n(C)c2c3c4c(cc12)c(C)cc(=O)n4CO3
[1]
  T/C: 89 % of control
[2]
  T/C: 70 % of control
[5]
  T/C: 48 % of control
dose: 200.0 mg/kg/injection, schedule: Q01DX010 (sc), vehicle: Klucel (hydroxypropylcellulose) (HPC)
  T/C: 63 % of control

## O=c1ssc(=Nc2ccccc2)n1-c1ccccc1
[5]
  T/C: 77 % of control
dose: 400.0 mg/kg/injection, schedule: Q01DX010 (sc), vehicle: Klucel (hydroxypropylcellulose) (HPC)
  T/C: 97 % of control

## COc1cc2cc[n+](C)c(Cc3ccccc3)c2cc1OC
[6]
  T/C: 88 % of control
[7]
  T/C: 115 % of control

## CC(C)=CC(=O)OC1C2C(C)=CC(=O)C(O)C2(C)C2C3(O)OCC24C(CC(=O)OC14)C(C)C3O (stereo unspecified)
dose: 1.25 mg/kg/injection, schedule: Q04DX003 (sc), vehicle: distilled water + Tween-80
  T/C: 92 % of control
dose: 2.5 mg/kg/injection, schedule: Q04DX003 (sc), vehicle: distilled water + Tween-80
  T/C: 90 % of control

## COc1ccc(C(N)=O)cc1N=NN(C)C
dose: 12.5 mg/kg/injection, schedule: Q01DX010 (sc), vehicle: Klucel (hydroxypropylcellulose) (HPC)
  T/C: 9 % of control
[1]
  T/C: 6 % of control and 15 % of control
[6]
  T/C: 23 % of control
[2]
  T/C: -25 % of control
[7]
  T/C: 13 % of control
[8]
  T/C: 8 % of control
[3]
  T/C: 8 % of control

## c1ccc2c(c1)nnn1c3cnccc3nc21
dose: 3.12 mg/kg/injection, schedule: Q01DX010 (sc), vehicle: saline with Tween-80
  T/C: 59 % of control
dose: 6.25 mg/kg/injection, schedule: Q01DX010 (sc), vehicle: saline with Tween-80
  T/C: 187 % of control
dose: 12.5 mg/kg/injection, schedule: Q01DX010 (sc), vehicle: saline with Tween-80
  T/C: 72 % of control
dose: 25.0 mg/kg/injection, schedule: Q01DX010 (sc), vehicle: saline with Tween-80
  T/C: 107 % of control
dose: 50.0 mg/kg/injection, schedule: Q01DX010 (sc), vehicle: saline with Tween-80
  T/C: 160 % of control
dose: 100.0 mg/kg/injection, schedule: Q01DX010 (sc), vehicle: saline with Tween-80
  T/C: 210 % of control

## O=C(O)CCCc1ccc(N(CCCl)CCCl)cc1
dose: 16.0 mg/kg/injection, schedule: Q01DX010 (sc), vehicle: saline with Tween-80
  T/C: 30 % of control

## O=C1C2(Cl)C3(Cl)C4(Cl)C(Cl)(Cl)C5(Cl)[C@]3(Cl)C1(Cl)[C@]5(Cl)C24Cl (stereo partly specified)
[6]
  T/C: 118 % of control
[7]
  T/C: 95 % of control
[8]
  T/C: 78 % of control

## O=C1NC(O)c2ccccc2O1 (stereo unspecified)
dose: 300.0 mg/kg/injection, schedule: Q04DX003 (sc), vehicle: suspension in saline
  T/C: 102 % of control
dose: 600.0 mg/kg/injection, schedule: Q04DX003 (sc), vehicle: suspension in saline
  T/C: 79 % of control
dose: 1200.0 mg/kg/injection, schedule: Q04DX003 (sc), vehicle: suspension in saline
  T/C: 63 % of control
dose: 2400.0 mg/kg/injection, schedule: Q04DX003 (sc), vehicle: suspension in saline
  T/C: 86 % of control

## COC1=C(N)C(=O)c2nc(-c3nc(C(=O)O)c(C)c(-c4ccc(OC)c(OC)c4O)c3N)ccc2C1=O
dose: 0.13 mg/kg/injection, schedule: Q01DX010 (sc), vehicle: saline
  T/C: 8 % of control
dose: 0.25 mg/kg/injection, schedule: Q01DX010 (sc), vehicle: saline
  T/C: 7 % of control and -6 % of control
dose: 1.0 mg/kg/injection, schedule: Q01DX010 (sc), vehicle: saline
  T/C: -85 % of control
